# Data taken from patent US20230002355A1 (NANJING SANHOME PHARMACEUTICAL CO., LTD., priority 2019, published 2023).
# pIC50: −log10 of the molar value. Like-named read-outs stand apart in the source and are kept apart here.
# Assays:
# [1] = tested on: NCI-H358 cells; assay: Cell proliferation inhibition test (CCK-8); format: cell-based; settings: NCI-H358 human non-small cell lung cancer cells, 168 h, read-out: NIH358 cell proliferation inhibition IC50
# Method: Test compounds: The compounds prepared in examples and comparative example of the present disclosure was tested. Each compound was formulated with DMSO into 20 mM. The concentrations of the compounds acting on NCI-H358 cells were 100 μM, 25 μM, 6.25 μM, 1.56 μM, 0.391 μM, 0.098 μM, 0.024 μM, 0.006 μM, 0.0015 μM, and 0.00038 μM successively.
# Human non-small cell lung cancer cells NCI-H358 were purchased from the American Type Culture Collection (ATCC).
# Reagents: The CCK-8 proliferation inhibition detection kit was purchased from Jiangsu KeyGEN BioTECH Co., Ltd. The CKX41 inverted microscope was purchased from Olympus, Japan. The multi-mode microplate reader was purchased from Molecular Devices, USA. The cell culture incubator was purchased from Thermo, USA.
# Cell recovery: A NCI-H358 cell cryogenic vial was taken out from a liquid nitrogen tank, placed in water bath at 37° C., and shaked gently to allow it to thaw. The thawed cryogenic vial was disinfected with alcohol cotton, and opened to aspirate the cell fluid into a centrifuge tube. To the centrifuge tube, 1 mL of serum-containing complete medium was added and well-mixed. The centrifuge tube was placed into a centrifuge, for centrifugation at 1000 rpm for 5 min. Then the supernatant was discarded, and complete medium was added to completely dissipate and resuspend the cells through repeated pipetting. The cells were seeded in petri dishes at appropriate concentrations and cultured in a CO2 incubator at 37° C., with 5% CO2, 95% humidified air.
# Cell passage: After the cells grew to about 80-90% confluence, the original culture medium (1640 culture medium+10% FBS+1% penicillin-streptomycin+1 mM sodium pyruvate) was discarded, and 1 mL of PBS was added to wash away the residual medium and then discarded. 1 mL of trypsin digestion solution was added to digest for 1-2 min. […] The cell suspension was collected by gently pipetting, and centrifuged at 1000 rpm for 5 min. After discarding the supernatant, the cells was resuspended in complete medium, seeded in petri dishes at the required density, and then cultured in a CO2 incubator at 37° C., with 5% CO2, 95% humidified air. Depending on cell growth, the culture medium was changed or passaged every 2-3 days.
# After NCI-H358 cell passage, the cells were resuspended in fresh culture medium (1640 culture medium+3% FBS+1% penicillin-streptomycin+1 mM sodium pyruvate), and counted. The cells were seeded into a 96-well culture plate at a density of 1.5×10^4 cells/mL, with each well added 100 μL thereto (ie, 1.5×10^3 cells/well). After 24 h, 100 μL of fresh culture medium containing different drug concentrations (2×) was added to the old culture medium. The final concentrations of the compounds were 100 μM, 25 μM, 6.25 μM, 1.56 μM, 0.391 μM, 0.098 μM, 0.024 μM, 0.006 μM, 0.0015 μM, and 0.00038 μM, with each concentration group set two replicate wells. The cells were […] in the incubator again for 168 h. The culture medium in wells was discarded as thoroughly as possible, and 100 μL of culture medium containing CCK-8 (CCK-8:culture medium=1:10) was added. After a certain time of culture in the incubator, the 96-well plate was taken out of the incubator, and allowed to equilibrate at room temperature for 5 min. The absorbance (OD value) at 450 nm was detected in a multi-mode plate reader, and the cell proliferation inhibition rate was calculated. The calculation formula was Inhibition (%)=100−(ODexperiment well−ODblank well)/(ODsolvent control well−ODblank well)×100. According to different drug concentrations and their corresponding inhibition rates, IC50 curves were plotted using GraghPad 5.0 software, to analyze the data and to obtain final IC50.
# [2] = Pharmacokinetic experiment in mice; format: in vivo; settings: mouse, plasma, male BALB/c mice; for bioavailability: I.G. 10 mg/kg vs IV 1 mg/kg, read-out: bioavailability F; for AUC(0-inf) / AUC(0-t) / Cmax / half-life: I.G., 10 mg/kg
# Method: Compounds: The compounds of the present disclosure prepared in the above examples were tested. The drug vehicle was Captisol/50 mM sodium acetate with pH 4.6 (10%/90%, w/v %). Oral drugs were formulated into a 0.5 mg/mL clear solution. Intravenous drug were formulated into a 0.1 mg/mL clear solution.
# Animals: Male BALB/c mice, SPF grade, were purchased from Shanghai SIPPR-Bk Lab Animal Co., Ltd, with a weight of 18-20 g, and adapted for 2-3 days before experiments.
# Instrument: API4500-type Triple Quadrupole LC/MS System, from AB, United States, equipped with electrospray ion source (ESI) and dual pumps LC-30AD; SIL-30AC autosampler; CTO-30AC column oven; DGU-20A3R degasser; AnalystQSA01.01 chromatography workstation; Milli-Q ultrapure water device (Millipore Inc); QilinbeierVortex-5 shaker; HITACHI CF16RX II desktop high-speed freezing centrifuge.
# (1) There were 3 mice per group. The compounds of the examples of the present disclosure were given by intragastric administration (I.G.) at 10 mg/kg, or the compounds of the examples of the present disclosure were given by intravenous (IV) administration at 1 mg/kg.
# (2) At 5 min, 15 min, 30 min, 1 h, 2 h, 6 h, 10 h, and 24 h after the intragastric administration or intravenous administration, blood was collected from the orbital venous plexus in heparinized EP tubes (0.6 ML), and centrifuged at 8000 rpm/min for 5 min. The upper plasma was taken, frozen at −20° C. and analyzed by LC-MS/MS.
# (3) Plasma drug concentration-time curves were plotted according to blood drug concentration data obtained from the above-mentioned step. Pharmacokinetic parameters were calculated by using WinNonlin software.
compound,measurement,setting,value
Nc1nc(N2CCC3(CC2)Oc2ccccc2[C@H]3N)cnc1Sc1ccnc(N)c1Cl [Compound A],pIC50,[1],7.74
same,bioavailability,[2]; oral,51.2%
"Cn1c(N2CCC3(CC2)Cc2ccccc2[C@H]3N)nc(N)c(Sc2cccnc2C(F)(F)F)c1=O [Example 1, (S)-6-amino-2-(1-amino-1,3-dihydrospiro[indene-2,4′-piperidin]-1′-yl)-3-methyl-5-((2-(trifluoromethyl)pyridin-3-yl)thio)pyrimidin-4(3H)-one]",pIC50,[1],8.80
"Cn1c(N2CCC3(CC2)Cc2ccccc2[C@H]3N)nc(N)c(Sc2ccc(N)nc2Cl)c1=O [Example 4, (S)-6-amino-2-(1-amino-1,3-dihydrospiro[indene-2,4′-piperidine]-1′-yl)-3-methyl-5-((6-amino-2-chloropyridin-3-yl)thio)pyrimidin-4(3H)-one]",pIC50,[1],8.25
"Cc1ncccc1Sc1c(N)nc(N2CCC3(CC2)Cc2ccccc2[C@H]3N)n(C)c1=O [Example 6, (S)-6-amino-2-(1-amino-1,3-dihydrospiro[indene-2,4′-piperidine]-1′-yl)-3-methyl-5-((2-methylpyridin-3-yl)thio)pyrimidin-4(3H)-one]",pIC50,[1],8.55
Cn1c(N2CCC3(CC2)Cc2ccccc2[C@H]3N)nc(N)c(Sc2ccnc(N)c2Cl)c1=O [Example 8],pIC50,[1],8.48
"Cn1c(N2CCC3(CC2)Cc2ccccc2[C@H]3N)nc(N)c(Sc2cccc(C#N)c2Cl)c1=O [Example 9, (S)-3-((4-amino-2-(1-amino-1,3-dihydrospiro[indene-2,4′-piperidine]-1′-yl)-1-methyl-6-oxo-1,6-dihydropyrimidin-5-yl)thio)-2-chlorobenzonitrile]",pIC50,[1],8.82
Nc1nccc(Sc2cnc(N3CCC4(CC3)Oc3ccccc3[C@H]4N)n3ccnc23)c1Cl [Example 45],pIC50,[1],8.41
same,bioavailability,[2]; po,78.3%
same,AUC(0-inf),[2]; po,21600 ng·h/mL
same,AUC(0-t),[2]; po,19400 ng·h/mL
same,Cmax,[2]; po,1590 ng/mL
same,half-life,[2]; po,7.3 h
"Nc1nccc(Sc2cnc(N3CCC4(CC3)Cc3ncccc3[C@H]4N)n3ccnc23)c1Cl [Example 46, (S)-1′-(8-((2-amino-3-chloropyridin-4-yl)thio)imidazo[1,2-c]pyrimidin-5-yl)-5,7-dihydrospiro[cyclopenta[b]pyridine-6,4′-piperidine]-5-amine]",pIC50,[1],8.07
"Nc1nccc(Sc2cnc(N3CCC4(CC3)Oc3ccccc3[C@H]4N)n3ccnc23)c1F [Example 47, (R)-1′-(8-(((2-amino-3-fluoropyridin-4-yl)thio)imidazo[1,2-c]pyrimidin-5-yl)-3H-spiro[benzofuran-2,4′-piperidin]]-3-amine]",pIC50,[1],7.78
"Cc1nc(N2CCC3(CC2)Oc2ccccc2[C@H]3N)n2ccnc2c1-c1cccc(Cl)c1Cl [Example 48, (R)-1′-(8-(2,3-dichlorophenyl)-7-methylimidazo[1,2-c]pyrimidin-5-yl)-3H-spiro[benzofuran-2,4′-piperidine]-3-amine]",pIC50,[1],7.92
same,bioavailability,[2]; po,81.2%
same,AUC(0-inf),[2]; po,37000 ng·h/mL
same,AUC(0-t),[2]; po,24200 ng·h/mL
same,Cmax,[2]; po,1890 ng/mL
same,half-life,[2]; po,15.6 h
"COc1cccc(-c2c(C)nc(N3CCC4(CC3)Oc3ccccc3[C@H]4N)n3ccnc23)c1Cl [Example 49, (R)-1′-(8-(2-chloro-3-methoxyphenyl)-7-methylimidazo[1,2-c]pyrimidin-5-yl)-3H-spiro[benzofuran-2,4′-piperidine]-3-amine]",pIC50,[1],7.88
Cn1c(N2CCC3(CC2)Oc2ccccc2[C@H]3N)nc2n[nH]c(-c3ccnc(NC4CC4)c3Cl)c2c1=O [Example 51],pIC50,[1],8.22
"Cn1c(N2CCC3(CC2)Oc2ccccc2[C@H]3N)nc(N)c(Sc2cccnc2C(F)(F)F)c1=O [Example 53, (R)-6-amino-2-(3-amino-3H-spiro[benzofuran-2,4′-piperidine]-1′-yl)-3-methyl-5-((2-(trifluoromethyl)pyridin-3-yl)thio)pyrimidin-4(3H)-one]",pIC50,[1],8.31
same,bioavailability,[2]; po,74.3%
same,AUC(0-inf),[2]; po,7410 ng·h/mL
same,AUC(0-t),[2]; po,6520 ng·h/mL
same,Cmax,[2]; po,1390 ng/mL
same,half-life,[2]; po,3 h
